Structures are written as SMILES. Activity calls are given as the source filed them.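 How the source made its calls: active means compounds giving half or more protection of infected cells from virus-caused growth loss, again on retest; inactive means the rest.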 Bounds are passed on as bounds.

The experiment has as its system CEM cells HIV-1 protection, formazan growth assay. Put plainly: NCI AIDS Antiviral Assay. To be noted: for IC50: measured here: growth of uninfected CEM cells. In a few lines:
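Protection of CEM cells against HIV-1 was scored from cell growth (soluble formazan) across five concentrations, with parallel uninfected cells. Lack of protection may reflect toxicity.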

Usually EC50 stands for the concentration that produces a half-maximal response. For orientation: IC50 means the point on the concentration scale where inhibition reaches its midpoint. For the molecule `COc1ccc2c(c1)CCCN2CCCCCCCCCCN(CCC(C)C)CCC(C)C`, the EC50 was > 77.6 µM and the IC50 amounted to 9.55 µM.

Turning to `Cc1ccc(S(=NS(=O)(=O)c2ccc(C)cc2)c2ccc(C)cc2)cc1`, the EC50 is > 49 µM and the half-maximal inhibitory concentration (IC50) is > 49 µM.

Regarding `NCC(=O)NC(CCCC(NC(=O)CN)P(=O)(O)O)P(=O)(O)O` (stereo not drawn), the outcome was inactive.

Turning to `Cc1ccc(N=Nc2c(C)nn(C(=O)CC(=O)Nc3ccccc3)c2C)cc1C`, the EC50 is > 200 µM and the concentration for half-maximal inhibition (IC50) is > 200 µM.

Consider `NCCN.NCCN.O=C([O-])[O-].O=C([O-])[O-].[Co+3]`, for which the outcome was inactive.

`COc1cc2cc[n+]3c4cc(OC)c(OC)cc4c(C)cc3c2cc1OC`: the result was inactive.

`COC1(O)c2cccc(Cl)c2C(=O)N1C1(C(N)=O)CCCCC1` (stereo not drawn): the outcome was inactive.

On to `O=C(CC(c1ccccc1)C(C(=O)c1ccncc1)C(CC(=O)c1ccncc1)c1ccccc1)c1ccncc1` (stereo not drawn), for which the EC50 is > 200 µM and the IC50 was > 200 µM.

On to `S=c1sc2sc(=S)sc2s1`, for which the outcome was inactive.

On to `CCC(=O)N/S(=N/S(=O)(=O)c1ccccc1)C(Cl)(Cl)Cl` (stereo not drawn), for which the EC50 is > 200 µM and the IC50 was > 200 µM.

Regarding `C=C(C)CCC1CCCCC(CN(C)C)C1=O` (stereo not drawn), the EC50 was > 200 µM and the concentration for half-maximal inhibition (IC50) was determined as 110 µM.

In the case of `Cc1cn(C2CCC(COP(=O)(OCC(=O)C(C)(C)C)OCC(=O)C(C)(C)C)O2)c(=O)[nH]c1=O` (stereo not drawn), the EC50 was 30.9 µM and the half-inhibitory concentration (IC50) is > 200 µM.

For `COC(CC1(/C=C/O[Si](C(C)C)(C(C)C)C(C)C)C(=O)N(COCC[Si](C)(C)C)c2ccccc21)OC` (stereo not drawn), the EC50 was > 200 µM and the IC50 came out at 36.3 µM.

Turning to `CC(=O)N1C(=O)C2(NCCCN2)c2ccccc21`, the EC50 is > 40.7 µM and the IC50 was > 40.7 µM.

Regarding `O=C(O)C1(C(O)c2ccccc2)SCCCS1` (stereo not drawn), the EC50 was > 200 µM and the half-maximal inhibitory concentration (IC50) is > 200 µM.

With `ClC(Cl)[Si]12OCCN(CCO1)CCO2`, the outcome was inactive.

For `CCOC(=O)C1=NN(c2ccc([N+](=O)[O-])cc2)[C@@]2(C)C[C@]3(c4ccccc4)N(c4ccc([N+](=O)[O-])cc4)N=C(C(=O)OCC)N3c3ccccc3N12`, the EC50 is > 200 µM and the IC50 was > 200 µM.

Take `CCOC(=O)c1cc2cc(C)cc(C(=O)c3ccc([N+](=O)[O-])cc3)c2[nH]1`: the EC50 was > 200 µM and the half-maximal inhibitory concentration (IC50) is > 200 µM.

With `O=C(CC(=O)N1N=C(c2ccccc2)C(N=Nc2ccccc2Cl)C1=O)Nc1ccccc1Cl` (stereo not drawn), the EC50 was > 52.5 µM and the IC50 came to 29.5 µM.

For the molecule `O=C1CCCCc2scc(C(=O)O)c2N1`, the EC50 is > 1120 µM and the half-maximal inhibitory concentration (IC50) was > 1120 µM.

Take `CC1C(=O)NC(=O)CC(=O)NC1=O`: the EC50 was > 1350 µM and the 50% inhibitory concentration (IC50) is > 1350 µM.

For the molecule `O=C1C(=O)N(c2ccc(Cl)c(Cl)c2)C(=O)C(=O)C1c1nc2ccccc2s1`, the outcome was inactive.

Turning to `c1cc2c(ncc3cscc32)s1`, the outcome was inactive.

Consider `CC(=O)OC1Sc2ccccc2C(=O)N2CCCC12` (stereo not drawn), for which the EC50 is > 200 µM and the IC50 was > 200 µM.

Take `CCOP(=O)(OCC)/C(C#N)=C/c1ccnc2ccccc12`: the EC50 is > 200 µM and the IC50 stood at 11.2 µM.

On to `CC(C)C1CC=CC2[C@H]3C(C)(CC[C@]12CBr)C(Br)CC[C@@]3(C)O` (stereo partly drawn), for which the outcome was inactive.

For the molecule `Cc1cccc(CC(=O)c2ccccc2)n1`, the EC50 was > 200 µM and the 50% inhibitory concentration (IC50) turned out to be 53.7 µM.

On to `CN(C)CC/C(=N\Nc1ccc(Cl)c(Cl)c1)c1ccccc1`, for which the outcome was inactive.

As for `CN1CCC2(CC1)C(C#N)C(=O)NC(=O)C2C#N` (stereo not drawn), the EC50 is > 339 µM and the IC50 was > 339 µM.

In the case of `COc1cc([C@@H]2c3cc4c(cc3[C@H](O)[C@H]3COC(=O)[C@H]23)OCO4)cc(OC)c1OC`, the EC50 was > 2.29 µM and the IC50 stood at 0.00479 µM.

For `Cc1c(OC(C)C(=O)O)ccc2c(-c3ccccc3)cc(=O)oc12` (stereo not drawn), the result was inactive.

`COc1ccc(C(OCC2OC(n3cnc4c(=O)n(Cc5ccccc5[N+](=O)[O-])nnc43)C(O)C2O)(c2ccccc2)c2ccc(OC)cc2)cc1` (stereo not drawn): the result was inactive.

Consider `CC1(C)CNC[C@@](C)(O)C(=O)[N-]C(C)(C)CNC[C@@](C)(O)C(=O)[N-]1.[Ni+2]`, for which the EC50 is > 200 µM and the concentration for half-maximal inhibition (IC50) amounted to 72.4 µM.

Turning to `COc1cccc(C=O)c1[O-].COc1cccc(C=O)c1[O-].[Cu+2]`, the EC50 was > 97.7 µM and the concentration for half-maximal inhibition (IC50) turned out to be 9.33 µM.

For the molecule `N#CCCN(CCC#N)c1ccc(/C=C(/NC(=O)c2cc([N+](=O)[O-])ccc2Cl)C(=O)NN)cc1`, the EC50 is > 10.7 µM and the IC50 was > 10.7 µM.

Consider `Cc1cc(C)c2c(c1)NP(=S)(c1ccccc1)N2` (stereo not drawn), for which the EC50 is > 200 µM and the half-maximal inhibitory concentration (IC50) was > 200 µM.

For the molecule `Cc1c(C(=O)CC(=O)C(=O)Nc2c(C(C)C)cccc2C(C)C)[n+](=O)c2ccccc2n1[O-]`, the EC50 is > 6.03 µM and the IC50 is > 6.03 µM.

Consider `O=C(CC(=O)N1N=C(n2ccc3ccccc32)CC1c1ccccc1)Nc1cccc(Cl)c1` (stereo not drawn), for which the result was inactive.

Take `CC1=NN(c2ccccc2)[As]2ON=C(c3ccc(Cl)cc3)C12` (stereo not drawn): the result was inactive.

As to `NS(=O)(=O)c1ccc(Nc2c3ccccc3nc3c(C(=O)NCCO)cccc23)cc1`, the EC50 is > 200 µM and the 50% inhibitory concentration (IC50) turned out to be 5.25 µM.

On to `O=S1(=O)OCCOS(=O)(=O)C1(I)I`, for which the EC50 was > 550 µM and the IC50 was 123 µM.

Regarding `CNC(=S)/C(=N\Nc1nc[nH]c1C(N)=O)C(N)=S`, the EC50 is > 2 µM and the IC50 was 0.955 µM.

Consider `O=C1C2C3C=CC(C3)C2S(=O)(=O)C2C3C=CC(C3)C12` (stereo not drawn), for which the EC50 was > 324 µM and the 50% inhibitory concentration (IC50) is > 324 µM.

For the molecule `COC(=O)C(CNC(=O)/C=C/c1ccc(OC)c(OC)c1)NC(=O)/C=C/c1ccc(OC)c(OC)c1` (stereo not drawn), the EC50 was > 200 µM and the concentration for half-maximal inhibition (IC50) is 135 µM.

For the molecule `O=C1OCOC2(CCCC2)C1c1ccccc1` (stereo not drawn), the EC50 was > 200 µM and the half-maximal inhibitory concentration (IC50) amounted to 120 µM.

Turning to `COc1ccc(OCc2nc3ccccc3[nH]2)cc1`, the EC50 is > 200 µM and the IC50 was > 200 µM.

As for `N#CC(/C(CCCC(=O)Nc1cccc([N+](=O)[O-])c1)=N/NC(=O)c1cc2ccccc2cc1O)c1ccccc1` (stereo not drawn), the EC50 is > 35.5 µM and the IC50 came to 15.5 µM.

`CC(C)CC(NC(=O)C(Cc1ccccc1)NC(=O)[C@H]1CC[C@H](NC(=O)C(Cc2ccc(OC(C)(C)C)cc2)NC(=O)OC(C)(C)C)C1)C(N)=O` (stereo partly drawn): the result was inactive.

In the case of `COc1ccc(N2C(=O)CC(C3CC(C(C)(C)C)CCC3=O)C2=O)cc1` (stereo not drawn), the EC50 is > 200 µM and the IC50 was > 200 µM.

With `CC(=O)OC1CCn2nnc(CO)c21` (stereo not drawn), the outcome was inactive.

Regarding `OCCN=C1Nc2ccc(Cl)cc2C(=S)N2CSC[C@@H]12`, the EC50 is > 200 µM and the half-maximal inhibitory concentration (IC50) is > 200 µM.

For `CC(=O)OCC1OC(n2c(C)cc(-c3cccc4ccccc34)c(C#N)c2=S)C(OC(C)=O)C(OC(C)=O)C1OC(C)=O` (stereo not drawn), the EC50 was > 200 µM and the IC50 stood at 21.4 µM.

Consider `Cc1cc(C)c2c(c1)C(=O)c1c(O)ccc(O)c1C2=O`, for which the outcome was inactive.

As for `Cc1ccc(NC(=O)C(=O)CC(=O)c2sc(Nc3c(C)cccc3C)nc2C)cc1C`, the EC50 is > 200 µM and the half-maximal inhibitory concentration (IC50) was > 200 µM.

Turning to `COc1ccc(C(=O)/C=C/c2ccc(OCC#N)cc2)cc1`, the EC50 is > 200 µM and the half-maximal inhibitory concentration (IC50) is 15.8 µM.

Regarding `CCCCCC=C(c1cc(Cl)c(O)c(C(=O)O)c1)c1cc(Cl)c(O)c(C(=O)O)c1`, the EC50 is > 95.5 µM and the IC50 is > 95.5 µM.

As for `CC(=O)Nc1cc2ccc(C)nc2c2nc(C)ccc12`, the EC50 is > 200 µM and the IC50 was > 200 µM.

In the case of `COc1ccc(NC(=O)C2C(=O)N(c3ccc(OC)cc3)C(=O)/C2=N\NC(N)=O)cc1` (stereo not drawn), the EC50 was > 61.7 µM and the half-inhibitory concentration (IC50) was > 61.7 µM.

Consider `CCOC(=O)CC(C)C1(C=O)CCCCC1=O` (stereo not drawn), for which the EC50 is > 759 µM and the IC50 was > 759 µM.

Regarding `Cc1cc(-c2ccc(N=Nc3c(S(=O)(=O)O)cc4cccc(S(=O)(=O)O)c4c3O)c(C)c2)ccc1N=Nc1ccc2c(S(=O)(=O)O)ccc(N)c2c1O`, the result was inactive.

For the molecule `O=[N+]([O-])c1ccc(Cc2ccccc2)cc1`, the EC50 was > 63.1 µM and the IC50 was > 63.1 µM.

Turning to `CCCCCCCCCCCCCCCC[N+](C)(C)Cc1ccccc1`, the EC50 is > 200 µM and the IC50 was determined as 3.31 µM.

As for `CCCCCC(/C=C/C1CCC(=O)C1)OCOCCOC` (stereo not drawn), the EC50 is > 200 µM and the IC50 worked out at 18.2 µM.

As to `CC1(CO)OC(n2cnc3c(N)ncnc32)C(O)C1O` (stereo not drawn), the EC50 is > 891 µM and the IC50 was > 891 µM.

In the case of `COc1ccc(OC)c(C[P+](c2ccccc2)(c2ccccc2)c2ccccc2)c1`, the EC50 is > 200 µM and the IC50 was 1.2 µM.

Regarding `CC(C)CC1NC(=O)C(CC(C)C)N(CO)C1=O` (stereo not drawn), the EC50 is > 200 µM and the IC50 was > 200 µM.

Consider `CCN(CC)CCCCC1CCN(CC(=O)N2CC(C)C(=O)Nc3ccccc32)CC1` (stereo not drawn), for which the EC50 was > 251 µM and the half-maximal inhibitory concentration (IC50) was > 251 µM.

As to `CCn1c2ccccc2c2c3ncc4cccn4c3ccc21`, the EC50 is > 200 µM and the IC50 amounted to 135 µM.

With `CC(=O)OCCCOCn1c(Cc2ccccc2)c(C(C)C)c(=O)[nH]c1=O`, the concentration for a half-maximal effect (EC50) is 0.0794 µM and the IC50 turned out to be 89.1 µM.

Consider `COC1CC2C=C(C)/C=C/C=C/C(=O)NC(c3ccccc3)C/C=C/CCC(O)CC(=O)C2=C1O` (stereo not drawn), for which the EC50 was > 20.9 µM and the IC50 worked out at 0.562 µM.

Regarding `CCOC(=O)c1ccc(C(=O)/C(C#N)=C2\CCCN2)[nH]1`, the EC50 was > 200 µM and the half-maximal inhibitory concentration (IC50) came out at 89.1 µM.

Take `O=C(c1cc(Cl)ccc1Cl)N1CCN(C(=O)c2cc(Cl)ccc2Cl)CC1`: the EC50 was > 200 µM and the IC50 is > 200 µM.

Take `C=CCN(Cc1ccncc1)C(=O)C(O)(c1ccccc1)c1ccccc1`: the EC50 is > 200 µM and the IC50 worked out at 186 µM.

Source of the values: PubChem BioAssay AID179 (DTP/NCI, 2004).
